Source: US7307101B2, “Use of 20-HETE synthesizing enzyme inhibitors as therapy for cerebral vascular disease” (MCW Research Foundation, Inc., priority 2000, dated 2007)

Key:
[1] = tested on: rats with SAH; test: Effect on rCBF after SAH, drug given before SAH; assay type: in vivo, rat; conditions: rats pretreated before SAH, 17-ODYA 1.5 nmol intrathecally
Method: Animals. Experiments were performed on male Sprague-Dawley rats (9-12 weeks old), purchased from Harlan Sprague-Dawley, Inc. (Indianapolis, Ind.). The rats were housed in an Animal Care Facility at the Medical College of Wisconsin, which is approved by the American Association for the Accreditation of Laboratory Animal Care. All protocols involving animals received approval by the Animal Care Committee of the Medical College of Wisconsin.
(§1) Surgical preparation. Rats were anesthetized with ketamine (Ketaject® 20 mg/kg i.m.) and thiobutabarbital sodium (Inactin® 50 mg/kg i.p.). A cannula was placed in the trachea and the rats were artificially ventilated using a small animal ventilator (SAR-830, CWE, Inc., Ardmore, Pa.) with a mixture of 30% O2 in N2. The femoral vein was cannulated for the infusion of drug and the rats received an i.v. infusion of 0.9% NaCl solution at a rate of […] to replace fluid losses. The femoral artery was cannulated for measurement of mean arterial pressure (MAP) and arterial blood gases. Endtidal partial pressure of carbon dioxide (pCO2) was controlled at 38 mmHg by adjusting the minute ventilation according to the reading of an CO2 analyzer (Capstar-100 IITC, Inc., Woodland Hills, Calif.). Blood samples were collected at the beginning and end of the experiment and analyzed using a blood gas analyzer (ABL 300, Radiometer, Copenhagen, Denmark) to validate the endtidal pCO2 readings. Anesthesia was maintained by administering additional amounts of thiobutabarbital (8 mg/kg i.v.) as needed. Rectal body temperature was maintained at 37±1° C.
Induction of SAH and measurement of cerebral blood flow. SAH was induced by injection of 0.3 ml autologous arterial blood into the Cisterna Magna using a modification of a posterior cranio-cervical approach of a model of SAH. Delgado T J et al., Stroke 16: 595-602 (1985); Solomon R A et al., Stroke 16: 58-64 (1985). The head of the rat was placed in a stereotactic head holder and the atlanto-occipital membrane was exposed by bluntly separating the overlying neck muscles in the midline. The occipital bone and the atlas were visualized. A 30 gauge needle attached to PE-10 was inserted using a stereomicroscope into the Cistema Magna by penetrating the atlanto-occipital membrane. Then, 0.3 ml of freshly drawn unheparinized arterial blood was injected into the Cistema Magna at a rate of 35 μl/min using a syringe pump. This created a massive SAH that was confirmed in all rats at autopsy. Blood was found overlying the cerebello-medullary junction posteriorly and around the basal artery and the vessels of the Circle of Willis.
Cerebral blood flow (CBF) was continuously measured using laser Doppler flowmetry through a thinned cranial window. […] A PF 103 laser Doppler flow (LDF) probe was positioned over the cranial window and CBF was monitored using a PF-3 laser Doppler flowmeter (Perimed, Stockholm, Sweden).
Other animals received 17-ODYA (1.5 nmol) or vehicle in a volume of 50 μl that was injected directly into the Cistema Magna using a micromanipulator and a 30 gauge needle. The CBF recorded over the last 5 minutes of the control period immediately before initiation of SAH served as the control value. […] CBF was recorded for 2 min intervals at 10, 20, 30, 60, 90 and 120 minutes after completion of the injection of the blood. The CBF data are expressed as percentage change from control.

[2] = HET0016 levels in plasma and brain; assay type: in vivo; conditions: rat; for concentration at 1 h: iv
Method: Measurement of HET0016 levels in plasma and brain. […] After a one hour equilibration period, the rats were anesthesized with pentobarbital and a blood sample was collected from the jugular vein. The rats were then sacrificed and the brain was removed, weighed and homogenized in 3 volumes of 0.9% NaCl solution using a Physcotron homogenizer (Nition-Ikakikai, Chiba, Japan). […] The samples were mixed with 1 ml of acetonitrile, centrifuged and 20 μl of the clear supernatant was injected into the LC/MS. The samples were separated on a 200×4.6 mm Capcellpak UG 120 ODS column (Shiseido Corp., Tokyo, Japan) and eluted with acetonitrile:water (72/28). Peaks were monitored using a Sciex API 3000 mass spectrometer (Perkin Elmer Sciex, Ontario, Canada) tuned to detect the precursor to product transitions specific for each analyte.

[3] = tested on: rats with MCA occlusion; test: Infarct volume after transient MCA occlusion; assay type: in vivo, rat; conditions: 24 h
Method: Adult male Wistar rats (200-250 g) were anesthetized with 2% halothane in O2 gas. The right external carotid artery (ECA) was carefully dissected. A silicon-coated suture (18 mm-long) was inserted from the lumen of the ECA to the right internal carotid artery (ICA) to occlude the origin of the right middle cerebral artery (MCA). Body temperature was maintained at 37° C. with a heating pad. […] One hour after MCA occlusion, the thread was removed to allow reperfusion of the ischemic area.
To measure infarct volume, rats were killed after 24 hours of reperfusion following transient occlusion of the MCA. Brains were flushed transcardially with physiological saline, removed from the skull, and cut into 2-mm coronal sections. The slices were immersed in 2% triphenyltetrazolium chloride (TTC) solution at 37° C. for 30 minutes.
All values were presented as mean±SEM. For statistical analysis, Dunnett's multiple-range test was used.

[4] = Physiological parameters (MAP, endtidal pCO2) during the SAH experiment; assay type: in vivo, rat; conditions: rats, any time
Method: as §1

[5] = tested on: EET formation in rat renal microsomes; test: EET formation in rat renal microsomes ([3H]-AA, Example 3); assay type: biochemical; conditions: highest concentration studied, 1,000 ng/ml or 5 μM
Method: All procedure was carried out at 4° C. Renal cortex was pooled from twenty male SHR rats (6 weeks of age). They were homogenized extensively in lysis buffer (20 mM HEPES, pH 7.4, 1 mM EDTA, 100 μM p-(amidinophenyl)metanesulfonyl fluoride and 250 mM sucrose), and centrifuged at 16,000×g for 10 min. Supernatant was further centrifuged at 16,000×g for 30 min. Soluble fraction was collected and centrifuged at 200,000×g for 30 min. The resulting pellet was suspended in 50 mM MOPS buffer.
The reaction was terminated by adding formic acid and acetonitrile to a final concentration of 1% and 50%, respectively.

CCCCc1ccc(N=CNO)c(C)c1 [HET0016, N-hydroxy-N′-(4-butyl-2-methylphenyl)-formamidine]
reduction of the initial fall in rCBF at 10 min ([1]; HET0016 10 mg/kg i.v. 30 min prior): about 40% | time after induction of SAH within which rCBF recovered fully to values not different from control ([1]; HET0016 10 mg/kg i.v.): ≤ 60 min | concentration at 1 h ([2]; brain, 1 hr after i.v. 10 mg/kg): 7.2 µM | concentration at 1 h ([2]; brain, 1 hr after i.v. 10 mg/kg, n=3): 1490 ng/g | concentration at 1 h ([2]; plasma, 1 hr after i.v. 10 mg/kg, n=3): 570 ± 90 ng/mL | HET0016 level in plasma (molar) ([2]; 1 hr after i.v. 10 mg/kg): 2.8 µM | concentration at 1 h ([2]; plasma, one hour after i.v. 10 mg/kg body weight): 2.8 µM | infarct volume ([3]; 0.1 mg/kg i.v. just after reperfusion, n=10): 10.7±2.6% | infarct volume ([3]; 1 mg/kg i.v. just after reperfusion, n=17): 9.7±2.1% | MAP (blood pressure) versus vehicle [4]: no difference | endtidal pCO2 versus vehicle [4]: no significant differences | EET formation [5]: did not inhibit
